# From ChEMBL document CHEMBL1201862, “PubChem BioAssay data set” (2004)
# Active and inactive are the calls of the source.
# Assays:
# [1] = target: T1, Mannose-6-phosphate isomerase (Homo sapiens, UniProt P34949); assay: MPI inhibition at elevated mannose 6-phosphate – biochemical, fluorescence intensity, high mannose 6-phosphate, primary screen (AID 1220)
# T1 sequence (P34949 whole entry): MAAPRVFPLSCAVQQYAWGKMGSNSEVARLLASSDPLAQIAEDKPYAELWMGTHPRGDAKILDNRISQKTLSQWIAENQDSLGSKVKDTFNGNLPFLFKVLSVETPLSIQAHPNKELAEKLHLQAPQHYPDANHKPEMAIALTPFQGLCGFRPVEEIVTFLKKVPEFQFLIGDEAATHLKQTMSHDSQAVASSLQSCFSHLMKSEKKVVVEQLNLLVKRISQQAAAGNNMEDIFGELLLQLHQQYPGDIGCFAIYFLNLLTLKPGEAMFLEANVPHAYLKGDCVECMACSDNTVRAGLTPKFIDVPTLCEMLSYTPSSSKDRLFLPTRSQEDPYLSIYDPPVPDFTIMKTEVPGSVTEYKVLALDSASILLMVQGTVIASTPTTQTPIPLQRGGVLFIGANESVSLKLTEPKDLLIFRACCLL
# Caspase-3 [2] = target: T2, Caspase-3 (Homo sapiens, UniProt P42574); type: functional
# T2 sequence (P42574 whole entry): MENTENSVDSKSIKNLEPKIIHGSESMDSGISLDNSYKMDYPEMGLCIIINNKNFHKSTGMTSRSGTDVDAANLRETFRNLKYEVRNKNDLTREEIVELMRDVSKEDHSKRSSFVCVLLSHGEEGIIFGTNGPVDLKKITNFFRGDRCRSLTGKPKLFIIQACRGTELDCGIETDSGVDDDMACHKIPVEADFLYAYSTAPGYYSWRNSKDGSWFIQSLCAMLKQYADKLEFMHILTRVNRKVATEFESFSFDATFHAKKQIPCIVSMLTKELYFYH
# [3] = target: T3, Sentrin-specific protease 7 (Homo sapiens, UniProt Q9BQF6); type: functional;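 note: Luminescence-based dose-response confirmation of ultra-high-throughput screening hits, measuring inhibition of SENP7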
# T3 sequence (Q9BQF6 whole entry): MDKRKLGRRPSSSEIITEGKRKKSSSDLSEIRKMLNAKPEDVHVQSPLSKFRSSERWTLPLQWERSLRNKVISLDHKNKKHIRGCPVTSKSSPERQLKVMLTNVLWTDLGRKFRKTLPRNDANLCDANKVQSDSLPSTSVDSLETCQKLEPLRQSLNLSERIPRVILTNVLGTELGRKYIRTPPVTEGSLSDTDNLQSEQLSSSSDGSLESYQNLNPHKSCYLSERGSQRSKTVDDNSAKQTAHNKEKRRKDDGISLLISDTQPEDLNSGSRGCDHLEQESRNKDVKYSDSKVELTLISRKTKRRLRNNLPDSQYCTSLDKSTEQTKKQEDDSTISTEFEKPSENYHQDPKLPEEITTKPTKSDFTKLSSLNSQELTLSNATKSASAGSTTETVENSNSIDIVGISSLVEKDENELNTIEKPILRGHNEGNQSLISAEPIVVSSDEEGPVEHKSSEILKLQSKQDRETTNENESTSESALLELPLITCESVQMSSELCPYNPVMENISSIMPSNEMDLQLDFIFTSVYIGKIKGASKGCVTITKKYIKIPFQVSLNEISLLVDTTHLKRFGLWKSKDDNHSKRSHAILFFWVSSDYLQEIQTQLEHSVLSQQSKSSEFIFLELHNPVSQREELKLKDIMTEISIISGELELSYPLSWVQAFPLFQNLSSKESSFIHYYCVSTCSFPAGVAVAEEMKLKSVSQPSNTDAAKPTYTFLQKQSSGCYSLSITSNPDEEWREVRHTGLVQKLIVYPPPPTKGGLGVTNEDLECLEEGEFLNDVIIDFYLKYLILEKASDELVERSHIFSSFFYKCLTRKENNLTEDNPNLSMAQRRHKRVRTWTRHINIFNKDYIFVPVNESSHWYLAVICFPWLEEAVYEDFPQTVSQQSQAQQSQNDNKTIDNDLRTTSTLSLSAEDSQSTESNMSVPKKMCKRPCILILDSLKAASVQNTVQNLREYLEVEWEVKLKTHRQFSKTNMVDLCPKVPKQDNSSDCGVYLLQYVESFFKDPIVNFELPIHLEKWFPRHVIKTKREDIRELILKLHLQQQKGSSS
# [4] = target: T4, Sentrin-specific protease 6 (Homo sapiens, UniProt Q9GZR1); type: functional
# T4 sequence (Q9GZR1 whole entry): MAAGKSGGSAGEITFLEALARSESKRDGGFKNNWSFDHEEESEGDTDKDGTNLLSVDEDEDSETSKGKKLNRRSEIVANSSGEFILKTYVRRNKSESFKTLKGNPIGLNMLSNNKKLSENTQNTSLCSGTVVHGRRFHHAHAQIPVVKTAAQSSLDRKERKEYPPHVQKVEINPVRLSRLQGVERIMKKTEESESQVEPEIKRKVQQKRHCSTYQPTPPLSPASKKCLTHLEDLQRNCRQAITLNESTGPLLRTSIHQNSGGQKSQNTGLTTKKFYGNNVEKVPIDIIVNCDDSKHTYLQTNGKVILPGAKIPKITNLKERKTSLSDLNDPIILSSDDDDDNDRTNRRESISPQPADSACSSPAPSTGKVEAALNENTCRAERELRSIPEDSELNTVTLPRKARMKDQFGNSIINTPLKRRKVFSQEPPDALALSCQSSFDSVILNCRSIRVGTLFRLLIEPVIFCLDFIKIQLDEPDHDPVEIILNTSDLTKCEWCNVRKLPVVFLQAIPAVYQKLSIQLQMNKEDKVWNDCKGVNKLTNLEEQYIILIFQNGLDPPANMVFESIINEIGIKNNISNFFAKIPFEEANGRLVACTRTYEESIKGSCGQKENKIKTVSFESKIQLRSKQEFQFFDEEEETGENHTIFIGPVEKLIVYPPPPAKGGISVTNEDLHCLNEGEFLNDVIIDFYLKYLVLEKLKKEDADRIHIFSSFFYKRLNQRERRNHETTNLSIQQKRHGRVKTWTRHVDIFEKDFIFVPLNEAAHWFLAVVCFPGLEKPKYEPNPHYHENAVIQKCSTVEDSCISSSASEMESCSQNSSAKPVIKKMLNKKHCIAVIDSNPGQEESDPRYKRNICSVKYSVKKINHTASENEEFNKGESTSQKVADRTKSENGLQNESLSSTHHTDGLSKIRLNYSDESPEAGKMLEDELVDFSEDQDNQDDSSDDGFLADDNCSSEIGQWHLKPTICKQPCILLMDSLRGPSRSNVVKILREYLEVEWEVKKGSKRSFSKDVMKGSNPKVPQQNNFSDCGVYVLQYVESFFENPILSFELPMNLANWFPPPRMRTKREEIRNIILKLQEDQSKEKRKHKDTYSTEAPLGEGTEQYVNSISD
# [5] = target: T5, Sentrin-specific protease 8 (Homo sapiens, UniProt Q96LD8); type: functional;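 note: luminescence read-out of SENP8 inhibition, dose-response confirmation following an ultra-high-throughput screen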
# T5 sequence (Q96LD8 whole entry): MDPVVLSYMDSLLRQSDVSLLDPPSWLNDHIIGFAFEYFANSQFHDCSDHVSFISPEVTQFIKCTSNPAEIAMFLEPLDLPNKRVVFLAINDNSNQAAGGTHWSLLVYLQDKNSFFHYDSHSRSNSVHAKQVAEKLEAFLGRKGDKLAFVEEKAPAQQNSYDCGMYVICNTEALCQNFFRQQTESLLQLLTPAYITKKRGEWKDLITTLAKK
# [6] = target: T5, Sentrin-specific protease 8; assay: inhibition of human SENP8 cleavage activity – biochemical, luminescence, SAR follow-up (AID 504501); type: functional
# Caspase-3 [7] = target: T2, Caspase-3; assay: SAR Analysis of small molecule inhibitors of Sentrin-specific proteases (SENPs) using a Caspase-3 Selectivity assay. [Related pubchem assays (depositor defined):AID2540, AID2599, AID434973, AID489001]; type: functional
# [8] = target: T4, Sentrin-specific protease 6; assay: SAR Analysis of small molecule inhibitors of Sentrin-specific protease 6 (SENP6) using a Luminescent assay. [Related pubchem assays (depositor defined):AID2582, AID2599]; type: functional
# [9] = target: Dual specificity tyrosine-phosphorylation-regulated kinase 1A (Rattus norvegicus, UniProt Q63470); type: biochemical, Homo sapiens
# [10] = target: T3, Sentrin-specific protease 7; assay: inhibition of human SENP7 cleavage activity – biochemical, luminescence, SAR follow-up (AID 504497); type: functional
# [11] = target: T6, Polyadenylate-binding protein 1 (Homo sapiens, UniProt P11940); assay: MLLE binding blockers, Cy5 peptide tracer – biochemical, fluorescence polarization, Cy5-PAM2 peptide, secondary, miRNA deadenylation inhibitor project, dose response (AID 602260); type: functional; conditions: read-out: IC50_Mean
# [12] = target: T6, Polyadenylate-binding protein 1; assay: MLLE domain peptide-binding blockers, IC50 – biochemical, fluorescence polarization, FITC-PAM2 peptide, dose response (AID 602259); type: functional; conditions: read-out: IC50_Mean
# [13] = PKA-R1A complex activators, counter-screen titration – biochemical, Cy5-IP20 fluorescence polarization, 1536-well, triplicate, counter-screen for PKA-R2B activator project, dose response (AID 504896)
# [14] = Fluorescence polarization-based biochemical high throughput dose response assay for activators of the Protein Kinase A-R2B (PKA-R2B) complex. [Related pubchem assays (depositor defined):AID504700, AID504704, AID504796, AID504797]
# Genome polyprotein = Genome polyprotein (dengue virus type 2, UniProt P29990); assay: flavivirus cap methylation enzyme inhibition – biochemical, confirmation dose response, primary screen (AID 588689); type: functional
# [15] = test system: Streptococcus sp. 'group A'; assay: Streptococcus pyogenes SK(-)GAS viability under kanamycin – luminescence, BacTiterGlo, confirmation, counter-screen for streptokinase expression inhibitor project, dose response (AID 1900); type: functional, organism-based
# Streptokinase A = target: T7, Streptokinase A (Streptococcus pyogenes serotype M1, UniProt P10520); assay: viability-normalized secreted streptokinase activity reduction – plasminogen activation absorbance, OD405, dose response (AID 1914); type: functional, Streptococcus pyogenes M1 GAS;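 note: secreted streptokinase activity via plasminogen activation per viability signal from cell pellet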
# T7 sequence (P10520 whole entry): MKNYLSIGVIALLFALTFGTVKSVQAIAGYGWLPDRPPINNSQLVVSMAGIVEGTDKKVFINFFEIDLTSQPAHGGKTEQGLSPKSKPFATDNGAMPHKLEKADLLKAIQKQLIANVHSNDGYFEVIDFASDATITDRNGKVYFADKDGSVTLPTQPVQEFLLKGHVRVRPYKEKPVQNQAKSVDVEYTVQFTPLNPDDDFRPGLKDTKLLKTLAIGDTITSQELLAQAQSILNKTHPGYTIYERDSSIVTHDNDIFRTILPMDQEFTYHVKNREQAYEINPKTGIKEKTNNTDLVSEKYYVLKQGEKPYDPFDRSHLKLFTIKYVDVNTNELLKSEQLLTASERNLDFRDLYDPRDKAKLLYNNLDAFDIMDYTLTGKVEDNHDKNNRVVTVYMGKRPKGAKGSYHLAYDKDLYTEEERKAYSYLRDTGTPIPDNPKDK
# Streptococcus = assay: GAS UMAA2166 growth inhibition – luminescence, BacTiterGlo, counter-screen for streptokinase expression inhibitor project, dose response (AID 1915); type: functional, organism-based;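 note: potency for reduction of bacterial viability or growth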
# Bcl-2-like protein 10 = target: T8, Bcl-2-like protein 10 (Homo sapiens, UniProt Q9HD36); assay: Isothermal titration calorimetry (ITC) with Bcl-B and compounds active in primary screen. [Related pubchem assays (depositor defined):AID1693]; type: functional
# T8 sequence (Q9HD36 whole entry): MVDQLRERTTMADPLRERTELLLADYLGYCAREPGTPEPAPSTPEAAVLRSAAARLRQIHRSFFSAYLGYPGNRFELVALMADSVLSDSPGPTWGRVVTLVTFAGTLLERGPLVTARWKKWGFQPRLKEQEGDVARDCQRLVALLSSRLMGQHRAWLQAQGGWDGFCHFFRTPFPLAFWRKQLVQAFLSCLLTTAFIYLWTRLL
# [16] = target: Dual specificity protein kinase CLK1 (Homo sapiens, UniProt P49759); assay: inhibition of human CLK1 activity – biochemical, cherry-picked samples, selectivity assay for Dyrk1A inhibitor project, dose response (AID 588811)
# Chain of Dual specificity protein kinase CLK1 (P49759 whole entry): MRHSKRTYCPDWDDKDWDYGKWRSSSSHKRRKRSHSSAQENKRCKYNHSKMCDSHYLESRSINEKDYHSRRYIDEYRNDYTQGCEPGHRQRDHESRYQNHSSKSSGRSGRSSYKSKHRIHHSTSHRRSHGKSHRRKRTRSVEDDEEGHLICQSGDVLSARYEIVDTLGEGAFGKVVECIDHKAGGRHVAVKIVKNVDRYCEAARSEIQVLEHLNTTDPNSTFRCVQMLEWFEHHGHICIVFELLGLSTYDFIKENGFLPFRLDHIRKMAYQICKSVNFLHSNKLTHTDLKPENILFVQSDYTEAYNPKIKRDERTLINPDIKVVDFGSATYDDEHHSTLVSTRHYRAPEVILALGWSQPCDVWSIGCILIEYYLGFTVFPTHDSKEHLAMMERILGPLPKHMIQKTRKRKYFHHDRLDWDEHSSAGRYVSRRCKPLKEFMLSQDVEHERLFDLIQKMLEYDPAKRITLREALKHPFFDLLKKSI
# T6 sequence (P11940 whole entry, the tested form may be a part): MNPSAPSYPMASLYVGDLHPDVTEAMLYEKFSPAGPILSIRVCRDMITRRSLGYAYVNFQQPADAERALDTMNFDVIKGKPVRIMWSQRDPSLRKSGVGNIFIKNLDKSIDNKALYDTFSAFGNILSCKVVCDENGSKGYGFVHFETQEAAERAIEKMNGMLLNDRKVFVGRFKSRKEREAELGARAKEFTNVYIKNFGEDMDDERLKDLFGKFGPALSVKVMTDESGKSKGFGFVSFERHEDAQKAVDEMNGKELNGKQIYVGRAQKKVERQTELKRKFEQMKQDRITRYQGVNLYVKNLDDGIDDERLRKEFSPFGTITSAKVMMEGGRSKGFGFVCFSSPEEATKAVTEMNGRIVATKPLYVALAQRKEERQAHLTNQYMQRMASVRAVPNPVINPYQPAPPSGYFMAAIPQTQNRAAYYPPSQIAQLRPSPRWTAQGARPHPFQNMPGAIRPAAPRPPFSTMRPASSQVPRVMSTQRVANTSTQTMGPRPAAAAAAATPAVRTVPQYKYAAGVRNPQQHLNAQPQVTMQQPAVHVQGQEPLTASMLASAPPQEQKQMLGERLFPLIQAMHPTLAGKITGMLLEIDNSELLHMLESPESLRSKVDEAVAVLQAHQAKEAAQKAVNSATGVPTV
# Chain of Genome polyprotein (P29990 2492-3391 limits assumed): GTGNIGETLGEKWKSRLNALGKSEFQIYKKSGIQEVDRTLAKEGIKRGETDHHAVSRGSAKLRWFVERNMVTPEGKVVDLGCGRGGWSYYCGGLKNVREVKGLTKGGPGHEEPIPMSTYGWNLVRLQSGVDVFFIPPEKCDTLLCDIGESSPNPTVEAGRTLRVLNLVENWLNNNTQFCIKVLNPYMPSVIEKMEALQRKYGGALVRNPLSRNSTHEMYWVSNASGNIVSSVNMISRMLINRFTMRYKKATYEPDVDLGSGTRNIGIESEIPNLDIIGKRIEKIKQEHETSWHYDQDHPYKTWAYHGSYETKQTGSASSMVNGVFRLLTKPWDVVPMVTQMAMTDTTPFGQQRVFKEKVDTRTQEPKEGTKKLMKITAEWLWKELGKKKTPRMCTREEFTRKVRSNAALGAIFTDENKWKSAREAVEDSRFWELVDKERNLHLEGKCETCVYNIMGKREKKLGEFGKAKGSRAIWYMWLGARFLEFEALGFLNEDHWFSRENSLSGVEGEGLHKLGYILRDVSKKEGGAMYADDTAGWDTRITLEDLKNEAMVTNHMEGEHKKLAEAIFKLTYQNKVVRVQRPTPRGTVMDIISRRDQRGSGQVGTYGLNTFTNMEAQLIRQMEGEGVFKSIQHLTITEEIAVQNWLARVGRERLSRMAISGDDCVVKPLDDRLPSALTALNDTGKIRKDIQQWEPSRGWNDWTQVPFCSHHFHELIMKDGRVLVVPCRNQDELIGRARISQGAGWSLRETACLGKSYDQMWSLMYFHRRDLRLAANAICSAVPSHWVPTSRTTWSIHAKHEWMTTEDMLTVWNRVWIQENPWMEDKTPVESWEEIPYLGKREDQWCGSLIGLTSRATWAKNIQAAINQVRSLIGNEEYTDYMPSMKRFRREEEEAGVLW
compound,measurement,setting,value
COc1ccc2c(C#N)c3ccccn3c2c1,IC50,[1],> 50 µM (not active)
same,IC50,Caspase-3 [2],54.8 µM (active)
same,IC50,[3],> 100 µM (inactive)
same,IC50,[4],16.6 µM (active)
same,IC50,[5],> 100 µM (inactive)
same,IC50,[6],> 99 µM (inactive)
same,IC50,Caspase-3 [7],65.4 µM (active)
same,IC50,[8],> 99 µM (inactive)
same,AC50,[9],242 nM (active)
same,IC50,[10],> 99 µM (inactive)
same,IC50,[11],> 66 µM (inactive)
same,IC50,[12],21.2 µM (inactive)
CN(C)c1ccc(N=Nc2ccc(S(=O)(=O)O)cc2)c2ccccc12,EC50,[13],> 114 µM (inactive)
same,EC50,[14],69 µM (inactive)
same,IC50,Genome polyprotein,46.2 µM (active)
O=c1c2c(n3nnnc3n1Cc1ccccc1)-c1ccccc1CC21CCCC1,EC50,[15],26.3 µM (active)
same,EC50,Streptokinase A,6.74 µM (active)
same,EC50,Streptococcus,> 150 µM (not active)
same,IC50,Bcl-2-like protein 10,200 nM (active)
CSCC(=O)Nc1nc(-c2ccc3c(c2)OCCO3)cs1,AC50,[16],8.63 µM (active)
